Measured values taken from patent US8012949B2, “Bisphosphonate compounds and methods with enhanced potency for multiple targets including FPPS, GGPPS, and DPPS” (The Board of Trustees of the University of Illinois, priority 2004, dated 2011).
Like-named read-outs stand apart in the source and are kept apart here.

Key:
[1] = biological target: T1, human DPPS (Homo sapiens, UniProt Q5T2R2); assay: human DPPS enzyme inhibition; format: biochemical; conditions: Table 1, experimental
T1 construct: made in house
T1 sequence (Q5T2R2 1-415): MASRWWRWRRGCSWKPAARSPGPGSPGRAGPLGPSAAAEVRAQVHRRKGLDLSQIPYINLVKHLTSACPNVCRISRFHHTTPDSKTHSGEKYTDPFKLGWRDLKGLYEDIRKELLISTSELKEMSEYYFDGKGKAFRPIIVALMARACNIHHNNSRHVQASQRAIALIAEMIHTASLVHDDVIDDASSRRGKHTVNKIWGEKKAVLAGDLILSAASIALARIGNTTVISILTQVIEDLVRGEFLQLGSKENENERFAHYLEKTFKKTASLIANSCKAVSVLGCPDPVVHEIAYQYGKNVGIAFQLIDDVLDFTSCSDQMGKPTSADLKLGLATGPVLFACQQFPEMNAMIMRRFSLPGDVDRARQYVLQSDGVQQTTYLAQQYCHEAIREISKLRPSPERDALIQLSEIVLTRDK
T1 sequence (Q86YH6 1-399 partner): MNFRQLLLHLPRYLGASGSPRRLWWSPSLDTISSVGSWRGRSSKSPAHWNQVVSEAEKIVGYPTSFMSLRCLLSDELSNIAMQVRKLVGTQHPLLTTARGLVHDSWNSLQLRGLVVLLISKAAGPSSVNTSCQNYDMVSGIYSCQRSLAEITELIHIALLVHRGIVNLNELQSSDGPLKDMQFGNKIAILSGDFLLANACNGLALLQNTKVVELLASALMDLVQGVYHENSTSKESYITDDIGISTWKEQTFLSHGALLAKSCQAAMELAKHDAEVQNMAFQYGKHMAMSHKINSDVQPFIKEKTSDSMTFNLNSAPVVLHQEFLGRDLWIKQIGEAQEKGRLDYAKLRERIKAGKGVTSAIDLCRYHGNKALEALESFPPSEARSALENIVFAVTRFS
Text: To test our polypharmaceutical hypothesis, we expressed three enzymes: human FPPS, GGPPS and DPPS, and tested each for their inhibition by a series of bisphosphonates.

[2] = system: MCF-7 (breast adenocarcinoma); assay: MCF-7 cell growth inhibition (MTT), incl. FOH/GGOH rescue; format: cell-based, human; conditions: for MCF7 Cell pIC50: Table 3, determined in this work; for IC50: Homo sapiens
Text: (§1) Cell Growth Inhibition Assays. […] A broth microdilution method was used to determine IC50 values for growth inhibition by each bisphosphonate. […] NBPs were typically initially dissolved in H2O (0.01 M) while NNBPs were typically dissolved in DMSO (0.01 M).
GraphPad PRISM® version 4.0 software for windows (GraphPad Software Inc., San Diego, Calif., www.graphpad.com) was used to fit the data to a rectangular hyperbolic function: I=(ImaxC)/(IC50+C);
For the “rescue” experiments, stock solutions of FOH or GGOH were prepared (in ethanol) and the requisite amounts added to the incubation media to produce a fixed 20 μM concentration.

[3] = system: NCI-H460 (lung large cell); assay: NCI-H460 cell growth inhibition (MTT); format: cell-based, human; conditions: Table 1, experimental
Text: as §1
(§2) GraphPad PRISM® version 4.0 software for windows (GraphPad Software Inc., San Diego, Calif., www.graphpad.com) was used to fit the data to a rectangular hyperbolic function: I=(ImaxC)/(IC50+C); […]

[4] = system: SF-268 (central nervous system glioblastoma); assay: SF-268 cell growth inhibition (MTT); format: cell-based, human; conditions: Table 1, experimental
Text: as §1, §2

[5] = system: Vγ2Vδ2 T cells; assay: γδ T cell activation (TNF-α release and proliferation); format: cell-based, human; conditions: Table 2, -log10(value, M); for EC50: Homo sapiens, T-cell, read-out: γδ T Cell Avg pED50 (converted)
Protocol: γδ T Cell Assays. Vγ2Vδ2 T cell TNF-α release and proliferation were performed basically as described previously^1. Briefly, to measure bioactivity for Vγ2Vδ2 T cells, the CD4^+ JN.24, CD4^+ HF.2, CD8αα^+ 12G12, or the CD4^−8^− HD.108 Vγ2Vδ2 T cell clones were stimulated with phosphoantigens in the presence of CP.EBV (an EBV transformed B cell line) for CD4^+ clones or Va-2 (a transformed fibroblast) for CD8αα^+ and CD4^−8^− clones. CP.EBV and Va-2 were fixed with 0.05% glutaraldehyde (EM grade, Sigma, Mo.) for use as APCs. […] Curve fitting minima for each experiment (e.g. TNF-α release from JN.24 cells) were determined using the Global Fitting technique, as implemented in Prism 4.0. Curve fitting maxima were optimized for each individual compound without the use of any constraints.

[6] = MCF7, Table 1, experimental, read-out: MCF-7 pIC50 (converted)
[7] = MCF7, Table 2, -log10(value, M), read-out: MCF-7 Cell pIC50 (converted)

SMILES | MCF7 Cell pIC50 [2] | MCF-7 Cell pIC50 (M) ([2]; Table 2, -log10(value, M)) | γδ T Cell Avg pED50 (M) [5] | further results
NCCCC(O)(P(=O)(O)O)P(=O)(O)O [BPH-1, reference compound] | 3.31 |  |  | DPPS pKi [1]: 6.3; MCF-7 pIC50 (M) ([2]; Table 1, experimental): 3.3 M; NCI-H460 pIC50 (M) [3]: 3.5 M; SF-268 pIC50 (M) [4]: 3.5 M
CC(C)(C)C(=O)OCOP(=O)(O)C(C[n+]1cccc(F)c1)P(=O)([O-])O (stereo not drawn) [BPH-669] |  | 4.75 M | 4.49 M | 
CCCCCCOc1ccc[n+](CC(P(=O)([O-])O)P(=O)(O)O)c1 (stereo not drawn) [BPH-723] |  | 5.76 M | 4.44 M | 
CCC[S+](C)CC(P(=O)([O-])O)P(=O)(O)O (stereo not drawn) [BPH-685] |  | 4.02 M | 3.81 M | DPPS pKi [1]: 6.7; MCF-7 pIC50 (M) ([2]; Table 1, experimental): 3.6 M; NCI-H460 pIC50 (M) [3]: 3.9 M; SF-268 pIC50 (M) [4]: 3.7 M
O=P([O-])(O)C(C[S+]1CCCC1)P(=O)(O)O (stereo not drawn) [BPH-682] |  | 4.02 M | 3.84 M | 
O=P(O)(O)C(Cc1cccnc1)P(=O)(O)O [BPH-290] |  | 3.47 M | 4.21 M | 
CN(CCOc1ccccc1)CCC(O)(P(=O)(O)O)P(=O)(O)O [BPH-219, reference compound] | 4.93 |  |  | 
CN(CCCc1ccccc1)CCC(O)(P(=O)(O)O)P(=O)(O)O [BPH-209, reference compound] | 4.01 |  |  | 
O=P([O-])(O)C(C[n+]1cccc(Cc2ccccc2)c1)P(=O)(O)O (stereo not drawn) [BPH-480] |  | 3.42 M | 3.33 M | 
CCCCCN(C)CCC(O)(P(=O)(O)O)P(=O)(O)O [BPH-24, reference compound] |  |  |  | DPPS pKi [1]: 7.3; MCF-7 pIC50 (M) ([2]; Table 1, experimental): 3.7 M; NCI-H460 pIC50 (M) [3]: 3.7 M; SF-268 pIC50 (M) [4]: 3.8 M
NCCC(O)(P(=O)(O)O)P(=O)(O)O [BPH-5, reference compound] | 3.85 |  |  | DPPS pKi [1]: 6.3; MCF-7 pIC50 (M) ([2]; Table 1, experimental): 3.9 M; NCI-H460 pIC50 (M) [3]: 4.0 M; SF-268 pIC50 (M) [4]: 3.5 M
O=P(O)(O)C(O)(Cc1cccnc1)P(=O)(O)O [BPH-2] |  | 3.13 M | 4.29 M | DPPS pKi [1]: 7.3; MCF-7 pIC50 (M) ([2]; Table 1, experimental): 3.8 M; NCI-H460 pIC50 (M) [3]: 3.7 M; SF-268 pIC50 (M) [4]: 3.9 M
CCCCOc1ccc[n+](CC(P(=O)([O-])O)P(=O)(O)O)c1 (stereo not drawn) [BPH-721] |  | 4.70 M | 4.10 M | 
CCCCCCCCCCCCc1ccc[n+](CC(P(=O)([O-])O)P(=O)(O)O)c1 (stereo not drawn) [BPH-677] |  | 4.34 M | 4.88 M | 
O=P([O-])(O)C(C[n+]1ccccc1)P(=O)(O)O (stereo not drawn) [BPH-470] |  | 4.14 M | 4.12 M | 
O=P(O)(O)C(O)(Cn1ccnc1)P(=O)(O)O [BPH-91, reference compound] | 4.81 |  |  | DPPS pKi [1]: 7.4; MCF-7 pIC50 (M) ([2]; Table 1, experimental): 4.7 M; NCI-H460 pIC50 (M) [3]: 4.8 M; SF-268 pIC50 (M) [4]: 4.8 M
CCCCCCCCCC[S+](C)CC(P(=O)([O-])O)P(=O)(O)O (stereo not drawn) [BPH-687] |  | 6.20 M | 5.09 M | 
O=P(O)(O)C(N1CCCCCC1)P(=O)(O)O [BPH-57, reference compound] | 3.60 |  |  | 
CC(C)(C)C(=O)OCOP(=O)(O)C(C[n+]1ccccc1)P(=O)([O-])O (stereo not drawn) [BPH-656] |  | 4.88 M | 4.29 M | 
CCCCCCCC[S+](C)CC(P(=O)([O-])O)P(=O)(O)O (stereo not drawn) [BPH-683] |  |  |  | Ki ([1]; read-out: DPPS_pKi (converted)): 63.1 nM; IC50 [2, 6]: 20 µM; IC50 [2, 7]: 6.76 µM; EC50 [5]: 107 µM; IC50 ([3]; Homo sapiens, NCI-H460, read-out: NCI-H460 pIC50 (converted)): 15.8 µM; IC50 ([4]; Homo sapiens, SF-268, read-out: SF-268 pIC50 (converted)): 12.6 µM

SMILES | MCF7 Cell pIC50 [2] | MCF-7 Cell pIC50 (M) ([2]; Table 2, -log10(value, M)) | γδ T Cell Avg pED50 (M) [5] | further results
C[S+](CCCc1ccccc1)CC(P(=O)([O-])O)P(=O)(O)O (stereo not drawn) [BPH-686] |  | 4.24 M | 3.81 M | 
O=P(O)(O)C(N1CCCCC1)P(=O)(O)O [BPH-72, reference compound] | 3.34 |  |  | 
O=P(O)(O)C(O)(C[n+]1cccc(F)c1)P(=O)(O)O [BPH-461, 3-fluoro-1-(2-hydroxy-2,2-bisphosphonoethyl)-pyridinium] |  | 4.34 M | 4.16 M | 
CN(CCCCc1ccccc1)CCC(O)(P(=O)(O)O)P(=O)(O)O [BPH-210, reference compound] | 4.08 |  |  | 
CC(C)(C)C(=O)OCOP(=O)(O)C(O)(C[n+]1cccc(F)c1)P(=O)([O-])O (stereo not drawn) [BPH-670] |  | 4.64 M | 4.16 M | 
CCCCCCCCCCCC[S+](C)CC(P(=O)([O-])O)P(=O)(O)O (stereo not drawn) [BPH-688] |  |  |  | IC50 [2, 6]: 6.31 µM; IC50 [2, 7]: 0.501 µM; EC50 [5]: 5.62 µM
CCCCCCCCOc1ccc[n+](CC(P(=O)([O-])O)P(=O)(O)O)c1 (stereo not drawn) [BPH-714] |  | 6.82 M | 5.29 M | 
CCCN(C)CC(P(=O)(O)O)P(=O)(O)O [BPH-693] |  | 5.32 M | 5.28 M | 
CCCCCCCCCCCCCCCCCC[S+](C)CC(P(=O)([O-])O)P(=O)(O)O (stereo not drawn) [BPH-696] |  | 5.85 M | 4.63 M | 
O=P(O)(O)C(O)(Cc1c[nH]cn1)P(=O)(O)O [BPH-18, reference compound] | 5.41 |  |  | 
O=P([O-])(O)C(C[n+]1cccc(F)c1)P(=O)(O)O (stereo not drawn) [BPH-477] |  | 4.77 M | 3.80 M | 
NCCC(O)(P(=O)(O)O)P(=O)(O)O [pamidronate, reference compound] |  |  |  | IC50 ([2]; MCF7, FIG. 2A, read-out: IC50, MCF-7 tumor cell growth inhibition): ~300 µM
CN(CCc1ccccc1)CCC(O)(P(=O)(O)O)P(=O)(O)O [BPH-208, reference compound] | 4.38 |  |  | 
CCc1ccc[n+](CC(P(=O)([O-])O)P(=O)(O)O)c1 (stereo not drawn) [BPH-475] |  | 4.37 M | 3.94 M | 
CCCCCCCCCCCCCCCC[S+](C)CC(P(=O)([O-])O)P(=O)(O)O (stereo not drawn) [BPH-695] |  | 5.95 M | 5.68 M | 
O=P([O-])(O)C(C[n+]1ccc(Cc2ccccc2)cc1)P(=O)(O)O (stereo not drawn) [BPH-481] |  | 3.90 M | 3.45 M | 
CCCCc1ccc[n+](CC(P(=O)([O-])O)P(=O)(O)O)c1 (stereo not drawn) [BPH-476] |  | 4.58 M | 4.00 M | 
O=P(O)(O)C(Cc1nccs1)P(=O)(O)O [BPH-58, reference compound] | 3.48 |  |  | 
O=P(O)(O)C(NC1CCCCCC1)P(=O)(O)O [BPH-31, reference compound] | 4.30 |  |  | 
O=P(O)(O)C(O)(Cc1cnc2ccccn12)P(=O)(O)O [BPH-261] |  |  |  | DPPS pKi [1]: 6.8; MCF-7 pIC50 (M) ([2]; Table 1, experimental): 4.8 M; NCI-H460 pIC50 (M) [3]: 4.8 M; SF-268 pIC50 (M) [4]: 4.9 M
